# According to patent publication US9133183B2, “Imidazolidinones and analogs exhibiting anti-cancer and anti-proliferative activities” (Deciphera Pharmaceuticals, LLC, priority 2013, dated 2015):
# Tested on: PC-3 M-luc cells
# Experiment: PC-3 peritibial implant model of cancer bone metastasis
# Format: in vivo, mouse
# Conditions: oral dose of 30 mg/kg twice daily; lesion score of 4 in vehicle-treated animals; scale 0-4
# Excerpt: PC-3 Peritibial Implant Model of Cancer Bone Metastasis
# To evaluate in vivo anti-cancer activity of compounds of formula I, the PC-3 M-luc peritibial injection model of bone invasiveness model was employed. Briefly, PC-3 M-luc cells were obtained from Xenogen Corporation (Caliper Life Sciences) and expanded using MEM media modified with L-Glutamine (Cell Gro® #10-045-CV) supplemented with 10% fetal bovine serum, 1% penicillin-streptomycin-glutamine, 1% non-essential amino acids, and 1% MEM vitamins in 5% CO2 atmosphere at 37° C. Six to 7 week old male nude mice (Crl:NU-Foxn1nu) were obtained from Charles River Laboratories. Test mice were implanted peritibially on Day 0 with 1×10^6 cells/mouse (0.1 ml) using an insulin syringe with a fixed 28-gauge needle. The needle was inserted at the ankle between the tibia and fibula until the bevel of the needle reached approximately half way between the knee and ankle. Treatments began on Day 0. Animals were dosed by oral gavage twice daily for the study duration. […]
# Isosurface volume renderings were used to delineate lesions in the hind limbs. […] Lesions in the right hind limb were scored with values of 0, 1, 2, 3, or 4 based on a qualitative assessment of lesion size as defined by: • 0: Normal Bone • 1: Minimal lesions. […]
structure (smiles),measurement,value
"CCN1CCN(C(=O)Nc2ccc(Oc3ccnc(-c4cnn(C)c4)c3)c(C)n2)C1=O [Example 42, 3-ethyl-N-(6-methyl-5-((2-(1-methyl-1H-pyrazol-4-yl)pyridin-4-yl)oxy)pyridin-2-yl)-2-oxoimidazolidine-1-carboxamide]",lesion score,2
